Test results reported in US20230416270A1, “NOVEL CAMPTOTHECIN DERIVATIVE, COMPOSITION COMPRISING SAME AND USE THEREOF” (priority 2020, published 2023).
Numbered stars: 1 amine (or outer) side, 2 acyl side, 3 side chain; on linkers, the order of the positions; unused ones are H or OH. Square brackets hold non-standard residues; d marks the D form. Peptide text beside a SMILES is read from it. * marks the point of attachment. Exatecan = CC[C@@]1(O)C(=O)OCc2c1cc1n(c2=O)Cc2c-1nc1cc(F)c(C)c3c1c2[C@@H](N*)CC3; Hexanoyl(6-maleimido) = O=C1C=CC(=O)N1CCCCCC(=O)*; NHCH2OCH2CO = O=C(COCN[*:1])[*:2]

Test system: SK-BR-3 cells
Assay: Assay for antiproliferative activity against SK-BR-3 cells (CellTiter-Lumi, ATP content)
Format: cell-based
Conditions: Homo sapiens, SK-BR-3, 72 h, read-out: IC50 (nM), antiproliferative activity against SK-BR-3 cells
Experimental: The activity of the antibody-drug conjugate of the present invention can be determined by the assay for the in-vitro antiproliferative activity against SK-BR-3 cells of a camptothecin derivative as a small molecule toxin.
SK-BR-3 cells were seeded into a 384-well plate (Fisher 142762) at 3000 cells per well. The next day, serially diluted compounds were added, and 72 hours after the addition, CellTiter-Lumi (Beyotime C0068XL) was added to measure the ATP content in the cells. The growth of the cells was evaluated, and relative IC50 values of the compounds against cell growth was calculated.

| Compound | IC50 |
| --- | --- |
| CC[C@@]1(O)C(=O)OCc2c1cc1n(c2=O)Cc2c-1nc1cc(F)c(C)c3c1c2C(N)CS3 (stereo partly drawn) [Compound 1, (9S)-1-amino-9-ethyl-5-fluoro-9-hydroxy-4-methyl-1,9,12,15-tetrahydro-13H-pyrano[3′, 4′:6,7]indolizino[1,2-b]thiopyrano[4,3,2-de]quinoline-10,13(2H)-dione] | 2.98 nM |
| CC[C@@]1(O)C(=O)OCc2c1cc1n(c2=O)Cc2c-1nc1cc(F)c(C)c3c1c2[C@H](N)CS3 [Compound 1-1] | 5.81 nM |
| CC[C@@]1(O)C(=O)OCc2c1cc1n(c2=O)Cc2c-1nc1cc(F)c(C)c3c1c2[C@@H](N)CS3 [Compound 1-2] | 1.73 nM |
| CC[C@@]1(O)C(=O)OCc2c1cc1n(c2=O)Cc2c-1nc1cc(F)c(OC)c3c1c2[C@@H](N)CS3 [Compound 4-2] | 2.74 nM |
| CC[C@@]1(O)C(=O)OCc2c1cc1n(c2=O)Cc2c-1nc1cc(F)c(C)c3c1c2[C@@H](N)CO3 [Compound 7-2] | 2.68 nM |
| CC[C@@]1(O)C(=O)OCc2c1cc1n(c2=O)Cc2c-1nc1cc(F)c(C)c3c1c2[C@@H](NC)CS3 [Compound 14-2] | 4.13 nM |
| CC[C@@]1(O)C(=O)OCc2c1cc1n(c2=O)Cc2c-1nc1cc(F)c(C)c3c1c2C(O)CS3 (some centres unmarked) [Compound 20] | 5.83 nM |
| CCc1c(F)cc2nc3c(c4c2c1SC[C@@H]4NC(=O)CO)Cn1c-3cc2c(c1=O)COC(=O)[C@]2(O)CC [Compound 34] | 5.84 nM |
| CC[C@@]1(O)C(=O)OCc2c1cc1n(c2=O)Cc2c-1nc1cc(F)c(OC)c3c1c2[C@@H](NC(=O)CO)CS3 [Compound 35] | 6.53 nM |
| Cc1c(F)cc2nc3c(c4c2c1SC[C@@H]4NC(=O)CO)Cn1c-3cc2c(c1=O)COC(=O)[C@]2(O)CCF [Compound 39] | 4.78 nM |
| CC[C@@]1(O)C(=O)OCc2c1cc1n(c2=O)Cc2c-1nc1cc(F)c(C)c3c1c2[C@@H](NC(=O)CO)CO3 [Compound 41] | 6.47 nM |
| CC[C@@]1(O)C(=O)OCc2c1cc1n(c2=O)Cc2c-1nc1cc(F)c(C)c3c1c2[C@@H](NC(=O)[C@H](C)O)CS3 [Compound 44] | 6.29 nM |
| CC[C@@]1(O)C(=O)OCc2c1cc1n(c2=O)Cc2c-1nc1cc(F)c(C)c3c1c2[C@@H](NC(=O)[C@@H](O)C1CC1)CS3 [Compound 48] | 6.73 nM |
| CC[C@@]1(O)C(=O)OCc2c1cc1n(c2=O)Cc2c-1nc1cc(F)c(C)c3c1c2[C@@H](NC(=O)[C@H](O)C1CC1)CS3 [Compound 49] | 7.32 nM |
| CC[C@@]1(O)C(=O)OCc2c1cc1n(c2=O)Cc2c-1nc1cc(F)c(C)c3c1c2[C@@H](N)CC3 [Exatecan, reference compound] | 5.35 nM |

Same assay, conditions: Homo sapiens; SK-BR-3, 72 hours after compound addition, relative IC50; read-out: IC50 (nM), antiproliferative activity against SK-BR-3 cells

| Compound | IC50 |
| --- | --- |
| CCc1c(F)cc2nc3c(c4c2c1SC[C@@H]4N)Cn1c-3cc2c(c1=O)COC(=O)[C@]2(O)CC [Compound 3-2] | 2.85 nM |
| CC[C@@]1(O)C(=O)OCc2c1cc1n(c2=O)Cc2cc3c(CN(C)C)c(O)ccc3nc2-1 [Topotecan, reference compound] | 58.3 nM |

Same assay, conditions: SK-BR-3, 72 hours after compound addition, relative IC50; read-out: IC50 (nM), antiproliferative activity against SK-BR-3 cells

| Compound | IC50 |
| --- | --- |
| CC[C@@]1(O)C(=O)OCc2c1cc1n(c2=O)Cc2c-1nc1cc(F)c(C)c3c1c2[C@@H](NC(=O)COCNC(=O)CNC(=O)[C@H](Cc1ccccc1)NC(=O)CNC(=O)CNC(=O)CCCCCN1C(=O)C=CC1=O)CC3 [Deruxtecan, reference compound] ({Hexanoyl(6-maleimido)}-GGFG[NHCH2OCH2CO]-Exatecan) | 13.6 nM |

Same assay, conditions: SK-BR-3 antiproliferative activity, relative to exatecan

| Compound | fold more active than exatecan |
| --- | --- |
| CC[C@@]1(O)C(=O)OCc2c1cc1n(c2=O)Cc2c-1nc1cc(F)c(C)c3c1c2[C@@H](N)CS3 [Compound 1-2] | 2 fold |

Test system: SK-BR-3 cells with high expression of HER2
Assay: cells
Format: cell-based
Conditions: Homo sapiens, SK-BR-3, 144 h, read-out: IC50 (nM), antiproliferative activity of the antibody-drug conjugates against SK-BR-3 cells
Source text: SK-BR-3 cells with high expression of HER2 were selected as cell strains for in-vitro activity detection in the experiment and were used for evaluating the dose-effect relationship of the antibody-drug conjugates (ADCs) of the present invention on cell killing.

| Compound | IC50 |
| --- | --- |
| CC[C@@]1(O)C(=O)OCc2c1cc1n(c2=O)Cc2c-1nc1cc(F)c(C)c3c1c2[C@@H](N)CC3 [Exatecan, reference compound] | 0.73 nM |
